Results as given in patent publication US12662451B2, “Chemical compounds and uses thereof” (GLAXOSMITHKLINE INTELLECTUAL PROPERTY (NO.4) LIMITED, priority 2023, dated 2026).
Where a name gives a salt, the structure may show the parent alone. Read-outs that look alike come from different tables or passages of the source.

Assays:
[1] = system: SW48 human colorectal cancer cells (MSI-H cancer cells); assay: SW48 cell viability, CellTiter-Glo, 120 hours (Example B); settings: Homo sapiens
[2] = biological target: T1, recombinant full-length WRN protein (1-1432) (Homo sapiens, UniProt Q14191); assay: WRN unwinding activity, fluorogenic 384-well assay (Example A); assay type: biochemical; settings: WRN unwinding activity, 4 hr; Table 2; read-out: 4 hr UNW pIC50 (converted)
T1 construct: recombinant full-length WRN protein (1-1432)
T1 sequence (Q14191 whole entry): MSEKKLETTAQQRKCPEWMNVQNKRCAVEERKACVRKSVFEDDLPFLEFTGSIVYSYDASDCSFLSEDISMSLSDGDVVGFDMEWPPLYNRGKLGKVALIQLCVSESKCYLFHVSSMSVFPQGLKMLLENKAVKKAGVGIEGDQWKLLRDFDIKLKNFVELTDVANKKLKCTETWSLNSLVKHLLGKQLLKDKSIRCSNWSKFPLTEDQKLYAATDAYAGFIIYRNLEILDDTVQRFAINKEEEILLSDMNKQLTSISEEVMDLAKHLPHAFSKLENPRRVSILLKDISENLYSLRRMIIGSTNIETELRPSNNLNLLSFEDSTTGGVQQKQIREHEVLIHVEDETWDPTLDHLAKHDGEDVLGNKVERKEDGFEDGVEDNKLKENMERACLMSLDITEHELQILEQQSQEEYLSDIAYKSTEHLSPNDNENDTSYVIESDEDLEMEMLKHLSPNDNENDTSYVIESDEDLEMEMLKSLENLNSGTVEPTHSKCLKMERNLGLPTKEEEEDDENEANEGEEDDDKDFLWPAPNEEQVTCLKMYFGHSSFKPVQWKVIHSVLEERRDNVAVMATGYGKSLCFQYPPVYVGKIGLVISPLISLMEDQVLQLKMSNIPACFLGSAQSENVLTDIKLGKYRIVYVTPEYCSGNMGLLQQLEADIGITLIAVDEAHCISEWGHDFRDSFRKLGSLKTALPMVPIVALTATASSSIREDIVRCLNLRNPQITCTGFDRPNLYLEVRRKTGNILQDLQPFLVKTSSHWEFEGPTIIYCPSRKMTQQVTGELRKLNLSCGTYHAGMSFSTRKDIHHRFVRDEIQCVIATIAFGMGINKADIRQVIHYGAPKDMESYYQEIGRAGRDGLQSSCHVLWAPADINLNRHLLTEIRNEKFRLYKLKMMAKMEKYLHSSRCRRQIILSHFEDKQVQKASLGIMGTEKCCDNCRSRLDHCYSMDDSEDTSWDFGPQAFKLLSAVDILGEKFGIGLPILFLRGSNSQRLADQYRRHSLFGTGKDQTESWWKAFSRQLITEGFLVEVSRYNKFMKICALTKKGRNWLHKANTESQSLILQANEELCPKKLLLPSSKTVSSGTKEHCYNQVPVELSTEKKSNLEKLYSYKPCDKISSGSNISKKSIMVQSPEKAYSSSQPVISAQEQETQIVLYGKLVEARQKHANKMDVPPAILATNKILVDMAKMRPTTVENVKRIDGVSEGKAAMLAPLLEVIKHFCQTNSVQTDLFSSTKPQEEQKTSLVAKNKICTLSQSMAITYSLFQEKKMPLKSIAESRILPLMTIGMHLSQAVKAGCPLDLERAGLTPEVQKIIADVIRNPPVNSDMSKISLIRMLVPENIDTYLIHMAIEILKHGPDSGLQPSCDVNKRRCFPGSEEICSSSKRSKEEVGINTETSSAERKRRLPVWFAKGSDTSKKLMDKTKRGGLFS
Outline: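 Read-out is end-point unwinding of a fluorophore/quencher duplex (ex 525, em 598 nm) after 60 min with 200 μM ATP and 12 nM DNA (2× stocks), EDTA stop. Compound first sat 4 h with 200 pM WRN (2× stock) in pH 8.0 Tris buffer; four-parameter fit gives pIC50.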

[3] = system: SW48 human colorectal cancer cells; assay: Calculated free drug potency in SW48 cell assay, corrected with media free fraction (Example C); assay type: cell-based; settings: Homo sapiens, SW48, SW48 pCC50 corrected with measured free fraction in cell assay media
Outline: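 Free drug potency derives from correcting SW48 assay concentrations with the unbound fraction in medium. That fraction came from RED against pH 7.4 PBS, 1 μM nominal compound, 4 h at 37 °C, quantified by LC-MS/MS peak area ratios at T=240 versus T=0 min.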

[4] = Cell culture media unbound percentage and stability by rapid equilibrium dialysis (Example C); assay type: in vitro ADME; settings: bovine, cell assay medium (RPMI-1640 with 10% fetal bovine serum), pH 7.4, rapid equilibrium dialysis, 4 hours at 37° C., read-out: Cell Culture Media Binding (% unbound)
Outline: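 Percent unbound in cell assay medium came from the LC-MS/MS receiver:donor peak area ratio, with stability taken as the 240 min over 0 min ratio. Set-up: 1 μM nominal compound in medium dialysed against pH 7.4 PBS (100 mM phosphate, 150 mM NaCl), 4 h, 37° C, shaken, in triplicate.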

[5] = SW48, 120 h, read-out: SW48 pCC50, SW48 cell viability, 120 hours incubation (converted), Table 2
[6] = SW48, read-out: SW48 pCC50, measured potency from Example B, as repeated in Table 3 (converted)

SMILES | CC50 [1, 5] [nM] | CC50 [1, 6] [nM] | IC50 [2] [nM] | CC50 [3] [nM] | fraction unbound at 4 h, 1 µM [4]
Cc1nc2cc(S(=O)(=O)N(C)c3ccc([C@H]4CCC[C@@H](COc5ccc(C(F)(F)F)cc5O)[C@@H]4C(=O)O)cc3)ccc2n1C [Example 206, (1R,2R,6S)-2-((2-hydroxy-4-(trifluoromethyl)phenoxy)methyl)-6-(4-((N,1,2-trimethyl-1H-benzo[d]imidazole)-5-sulfonamido)phenyl)cyclohexane-1-carboxylic acid] | 3980 | 3980 | 15.8 | 12.9 | 0.0032
Cc1nc2cc(S(=O)(=O)N(C)c3ccc([C@H]4CCC[C@@H](COc5ccc(C(F)(F)F)cc5)[C@@H]4C(=O)O)cc3)ccc2n1CCN(C)C [Example 219, (1R,2S,6R)-2-(4-((1-(2-(dimethylamino)ethyl)-N,2-dimethyl-1H-benzo[d]imidazole)-5-sulfonamido)phenyl)-6-((4-(trifluoromethyl)phenoxy)methyl)cyclohexane-1-carboxylic acid] | 6310 | 6310 | 5.01 | 19.5 | 0.0031
CN(c1ccc([C@H]2CCC[C@@H](C(=O)Nc3ccc(C(F)(F)F)cc3F)[C@@H]2C(=O)O)cc1)S(=O)(=O)c1cccc(C2CCNCC2)c1 [Example 261, (1R,2R,6S)-2-((2-fluoro-4-(trifluoromethyl)phenyl)carbamoyl)-6-(4-((N-methyl-3-(piperidin-4-yl)phenyl)sulfonamido)phenyl)cyclohexane-1-carboxylic acid] | 1000 | 1000 | 1.58 | 309 | 0.311
CN(c1ccc([C@H]2CCC[C@@H](C(=O)Nc3ccc(C(F)(F)F)cc3F)[C@@H]2C(=O)O)cc1)S(=O)(=O)c1cccc([C@@H]2CCCNC2)c1 [Example 262, (1R,2R,6S)-2-((2-fluoro-4-(trifluoromethyl)phenyl)carbamoyl)-6-(4-((N-methyl-3-((S)-piperidin-3-yl)phenyl)sulfonamido)phenyl)cyclohexane-1-carboxylic acid] | 1000 | 1000 | 1.58 | 240 | 0.241
CN(c1ccc([C@H]2CCC[C@@H](C(=O)Nc3ccc(C(F)(F)F)cc3F)[C@@H]2C(=O)O)cc1)S(=O)(=O)c1cccc([C@H]2CCCNC2)c1 [Example 263] | 200 | 200 | 1.58 | 55 | 0.278
CN1CCN(c2cc(S(=O)(=O)N(C)c3ccc([C@H]4CCC[C@@H](C(=O)Nc5ccc(C(F)(F)F)cc5F)[C@@H]4C(=O)O)cc3)cc3ccoc23)CC1 [Example 265, (1R,2R,6S)-2-((2-fluoro-4-(trifluoromethyl)phenyl)carbamoyl)-6-(4-((N-methyl-7-(4-methylpiperazin-1-yl)benzofuran)-5-sulfonamido)phenyl)cyclohexane-1-carboxylic acid] | 794 | 794 | 6.31 | 91.2 | 0.115
CN(c1ccc([C@H]2CCC[C@@H](C(=O)Nc3ccc(C(F)(F)F)cc3F)[C@@H]2C(=O)O)cc1)S(=O)(=O)c1ccc2c(c1)nc(N)n2C [Example 266, (1R,2S,6R)-2-(4-((2-amino-N,1-dimethyl-1H-benzo[d]imidazole)-5-sulfonamido)phenyl)-6-((2-fluoro-4-(trifluoromethyl)phenyl)carbamoyl)cyclohexane-1-carboxylic acid] | 398 | 398 | 1.26 | 56.2 | 0.141
CN(c1ccc([C@H]2CCC[C@@H](C(=O)Nc3ccc(C(F)(F)F)cc3F)[C@@H]2C(=O)O)cc1)S(=O)(=O)c1ccc2c(c1)nc(CCN)n2C [Example 267, (1R,2S,6R)-2-(4-((2-(2-aminoethyl)-N,1-dimethyl-1H-benzo[d]imidazole)-5-sulfonamido)phenyl)-6-((2-fluoro-4-(trifluoromethyl)phenyl)carbamoyl)cyclohexane-1-carboxylic acid hydrochloride] | 794 | 794 | 1 | 178 | 0.226
CN(C)CCc1nc2cc(S(=O)(=O)N(C)c3ccc([C@H]4CCC[C@@H](C(=O)Nc5ccc(C(F)(F)F)cc5F)[C@@H]4C(=O)O)cc3)ccc2n1C [Example 272, (1R,2S,6R)-2-(4-((2-(2-(dimethylamino)ethyl)-N,1-dimethyl-1H-benzo[d]imidazole)-5-sulfonamido)phenyl)-6-((2-fluoro-4-(trifluoromethyl)phenyl)carbamoyl)cyclohexane-1-carboxylic acid] | 158 | 158 | 1.58 | 37.2 | 0.236
CN(c1ccc([C@H]2CCC[C@@H](COc3ccc(C(F)(F)F)cc3)[C@@H]2C(=O)O)cc1)S(=O)(=O)c1ccc2c(c1)nc(CCN)n2C [Example 273] | 7940 | 7940 | 5.01 | 64.6 | 0.0082
CN(C)CCc1nc2cc(S(=O)(=O)N(C)c3ccc([C@H]4CCC[C@@H](COc5ccc(C(F)(F)F)cc5)[C@@H]4C(=O)O)cc3)ccc2n1C [Example 275] | 5010 | 5010 | 2 | 41.7 | 0.0083
Cc1nc2cc(S(=O)(=O)N(C)c3ccc([C@H]4CCC[C@@H](C(=O)Nc5ccc(C(F)(F)F)cc5F)[C@@H]4C(=O)O)cc3)ccc2n1CCN [Example 277, (1R,2S,6R)-2-(4-((1-(2-aminoethyl)-N,2-dimethyl-1H-benzo[d]imidazole)-5-sulfonamido)phenyl)-6-((2-fluoro-4-(trifluoromethyl)phenyl)carbamoyl)cyclohexane-1-carboxylic acid] | 1580 | 1580 | 0.631 | 309 | 0.197
Cc1nc2cc(S(=O)(=O)N(C)c3ccc([C@H]4CCC[C@@H](C(=O)Nc5ccc(C(F)(F)F)cc5F)[C@@H]4C(=O)O)cc3)ccc2n1CCN(C)C [Example 278, (1R,2S,6R)-2-(4-((1-(2-(dimethylamino)ethyl)-N,2-dimethyl-1H-benzo[d]imidazole)-5-sulfonamido)phenyl)-6-((2-fluoro-4-(trifluoromethyl)phenyl)carbamoyl)cyclohexane-1-carboxylic acid] | 126 | 126 | 0.631 | 26.3 | 0.208
CCO[C@@H]1C[C@H](c2ccc(N(C)S(=O)(=O)c3ccc4c(c3)nc3n4CCCC3)cc2)[C@@H](C(=O)O)[C@H](C(=O)Nc2ccc(C(F)(F)F)cc2F)C1 [Example 279, (1R,2R,4R,6S)-4-ethoxy-2-((2-fluoro-4-(trifluoromethyl)phenyl)carbamoyl)-6-(4-((N-methyl-1,2,3,4-tetrahydrobenzo[4,5]imidazo[1,2-a]pyridine)-7-sulfonamido)phenyl)cyclohexane-1-carboxylic acid] | 126 | 126 | 2 | 10 | 0.079
